In patent publication US12234257B2, “Triterpene saponin derivative and use thereof” (KOREA INSTITUTE OF SCIENCE AND TECHNOLOGY, priority 2020, dated 2025):

Key:
[1] = system: MPTP-induced in vivo PD model; assay: Pole test; set-up: species or system mice (C57BL/6j); conditions: MPTP mice, 2 hours
Experimental: In this study, all animal management and experimental protocols were performed in compliance with guidelines of the Institutional Animal Care and Use Committee of the Korea Institute of Science and Technology. 40 mice (C57BL/6j, male, 8 weeks old) were purchased from SLC Inc. (Shizuoka, Japan). After arrival, every four mice were hosed in each cage (30 cm×18.5 cm×13 cm) and allowed free access to feed and water. All mice were housed under the following constant conditions: lights on from 6:00 to 18:00, a temperature of 23° C.±1° C., and a humidity of 50%±10%. After 7 days of a habituation period, the mice were used in the experiments according to standard protocols. 40 mice were classified into five groups such that eight mice belonged to each group. After the habituation period, all mice were orally administered with a drug every day. […] Each mouse was administered with a single dose of saline/MPTP injection every day for 8 days. At 7 days after the final MPTP injection, all mice were sacrificed by cervical dislocation, and then the whole brain, SNpc, and striatum (ST) were excised for biochemical analysis. […] Each mouse was placed on the top of the pole with the head raised up, and a time taken for the mouse to turn and descend the pole was recorded up to 120 seconds with a stopwatch. […] An average time of three tests was calculated to evaluate motor function.

[2] = system: autophagy-related protein markers including LC3, p62, AMPK, Erk, ULK, and mTOR; assay: Western blot of autophagy-related protein markers in ST and SN of mice; assay type: in vivo, mice (C57BL/6j); conditions: for expression of p-mTOR in ST / p-mTOR in SN: MPTP mice; for expression of p-ULK: ST and SN, vs MPTP
Experimental: 40 mice were classified into five groups such that eight mice belonged to each group. After the habituation period, all mice were orally administered with a drug every day. While the mice of Groups 1 and 2 were administered with saline (p.o.), the mice of Groups 3, 4, and 5 were administered with 5 mg/kg ropinirole (p.o.), 5 mg/kg AKNS-2 (p.o.), and 15 mg/kg AKNS-2 (p.o.), respectively. From the 5th day therefrom, the mice of Group 1 were intraperitoneally administered with a saline at 1 hour after gavage feeding of saline, and the mice of Groups 2, 3, 4, and 5 were administered with 30 mg/kg MPTP (i.p.) at 1 hour after gavage feeding of saline, ropinirole, AKNS-2 (5 mg/kg), and AKNS-2 (15 mg/kg), respectively. Each mouse was administered with a single dose of saline/MPTP injection every day for 8 days. At 7 days after the final MPTP injection, all mice were sacrificed by cervical dislocation, and then the whole brain, SNpc, and striatum (ST) were excised for biochemical analysis.
On the 7th day after the last administration of MPTP, SNpc and ST of each mouse were carefully excised and stored at −80° C. until use. Thereafter, brain tissue of SNpc and ST was homogenized in a PRO-PREP™ lysis buffer (iNtRON, Gyeonggi, Korea) containing a phosphatase inhibitor cocktail set I (Sigma-Aldrich, Mo., USA). After shaking at 4° C. for 30 minutes, homogenates were centrifuged at 4° C. at 13000×g for 20 minutes, and a supernatant obtained therefrom was collected and added to a new 1.5 mL tube. A concentration of proteins contained in the supernatant was measured by the Bradford method. A part of the supernatant was mixed with the same volume of a loading buffer and denatured in a heater at 99° C. for 5 minutes for western blot analysis. The remaining supernatant was stored at −80° C. for subsequent tests for MAO-B activity and DA level using an ELISA kit.
Protein markers contained in lysates of the SH-SY5Y cells and brain tissue of the mice (SNpc and ST) were measured by western blot analysis. […] Then, proteins separated on the gel were transferred to a polyvinylidene fluoride (PVDF) membrane for 45 minutes using a Trans-Blot Turbo Transfer System (Bio-Rad, USA). The membrane was washed with tris-buffered saline with 0.1% Tween 20, TBST) for 5 minutes and then blocked by 5% skim milk dissolved in a TBST buffer. The membrane was further incubated with monoclonal primary antibodies derived from rabbits (anti-GAPDH, anti-AMPK, anti-p-AMPK, anti-ULK, anti-p-ULK555, anti-Erk, anti-p-Erk, anti-mTOR, anti-p-mTOR, anti-LC3B, anti-TH, and anti-α-synuclein antibodies). The primary antibodies were diluted in a blocking buffer at a ratio of 1:1000 and incubated overnight at 4° C. On the second day, the membrane was washed with TBST three times (10 minutes each) and incubated at room temperature in a horseradish peroxidase-conjugated goat anti-rabbit IgG secondary antibody (diluted in a blocking buffer at a ratio of 1:2000). After incubating in the secondary antibody for 1 hour, the membrane was washed for 30 minutes. The protein blots on the membrane were developed using an ECL detection kit and visualized using an LAS-4000 mini system (Fujifilm, Japan). The intensity of the protein blots was quantified using Multi Gauge software (Fujifilm, Japan).

[3] = 15 mg/kg p.o., vs MPTP treatment
[4] = both ST and SN, vs MPTP treatment

| SMILES | behavior performance in pole test ([1]; 5 mg/kg and 15 mg/kg p.o.) | expression of LC3-II in SN [2, 3] | expression of LC3-II in ST [2, 3] | expression of p-mTOR in ST [2] | p-mTOR in SN [2] | expression of p-ULK ([2]; 5 mg/kg and 15 mg/kg p.o.) | p62 levels ([2]; both ST and SN, 5 mg/kg and 15 mg/kg p.o., vs MPTP-treated group) | expression of p-Erk ([2]; both ST and SN, 15 mg/kg p.o., vs MPTP treatment) | p-AMPK [2, 4] | behavior performance in pole test ([1]; ropinirole (5 mg/kg p.o.)) | expression of p-ULK ([2]; ropinirole) |
| --- | --- | --- | --- | --- | --- | --- | --- | --- | --- | --- | --- |
| C[C@@H]1O[C@@H](O[C@@H]2[C@@H](O)[C@H](O[C@@H]3[C@@H](O[C@@H]4OC[C@@H](O)[C@H](O)[C@H]4O)[C@@H](O)[C@H](O[C@H]4[C@H](OC(=O)[C@]56CCC(C)(C)C[C@H]5C5=CC[C@@H]7[C@@]8(C)C[C@H](O)[C@H](O[C@@H]9O[C@H](CO)[C@@H](O)[C@H](O[C@@H]%10OC[C@@H](O)[C@H](O)[C@H]%10O)[C@H]9O)[C@@](C)(CO)[C@@H]8CC[C@@]7(C)[C@]5(C)C[C@H]6O)OC[C@H](O)[C@@H]4O)O[C@H]3C)OC[C@H]2O)[C@H](O)[C@H](O)[C@H]1O [Compound 1, 3-O-β-D-xylopyranosyl-(1→3)-β-D-glucopyranosylpolygalacic acid 28-O-α-L-rhamnopyranosyl-(1→3)-β-D-xylopyranosyl-(1→4)-[β-D-xylopyranosyl-(1→3)]-α-L-rhamnopyranosyl-(1→2)-α-L-arabinopyranosyl ester] | considerably restored | Although no noticeable difference was observed, increased expression of LC3-II was observed in SN | induced a significant increase in the expression of LC3-II in ST | clearly showed a tendency to decrease the expression of p-mTOR in ST | a significant decrease in p-mTOR | significantly increased the expression of p-ULK in ST and SN | significantly decreased p62 levels | significantly increased | induced a significant increase in p-AMPK in both ST and SN | – | – |
| CCCN(CCC)CCc1cccc2c1CC(=O)N2 [ropinirole, reference compound] | – | – | – | clearly showed a tendency to decrease the expression of p-mTOR in ST | a significant decrease in p-mTOR | – | – | – | induced a significant increase in p-AMPK in both ST and SN | considerably restored | significantly increased the expression of p-ULK in ST and SN |
